Measurements taken from US8110570B2, “Modulators of acetyl-coenzyme A carboxylase and methods of use thereof” (Cropsolution, Inc., priority 2008, dated 2012).

What was measured:
hACC1 = molecular target: T1, hACC1 (Homo sapiens, UniProt Q13085); experiment: [14C]bicarbonate incorporation assay, overall ACC activity; format: biochemical; conditions: recombinant hACC1, overall ACC activity
T1 construct: PCR primers were designed for full-length hACC1 and hACC2 using GenBank submissions AY237919 and AJ575592, respectively; His tag (C); made in house; host or cells: baculovirus, Sf9 insect cells
Description: (§1) In vitro IC50 values of human ACC were determined using recombinant enzyme produced by standard procedures. For example, full-length cDNAs for both the human isoforms (hACC1 and hACC2) were each cloned and expressed as a recombinant protein using a baculovirus system. Double stranded cDNA from human fetal liver (Quick-Clone cDNA, cat. #7171-1) was purchased from BD/Clontech (Mt. View, Calif.). PCR primers were designed for full-length hACC1 and hACC2 using GenBank submissions AY237919 and AJ575592, respectively. The Advantage GC 2 PCR kit (BD/Clontech) was used for amplification. The PCR products (about 7 Kb) were TOPO-cloned into the pCR4Blunt vector (Invitrogen, Carlsbad, Calif.), and 6 clones of each gene were isolated. […] Full length versions of the two cDNAs corresponding to their respective Genbank sequences were assembled in pBluescript SK+ (Stratagene, La Jolla, Calif.) by combining error-free fragments from the PCR clones. The resulting hACC1 clone, designated pCS35, has six silent nucleotide differences compared to Genbank accession AY237919. The final hACC2 clone, designated pCS36, has ten silent nucleotide differences compared to Genbank accession AJ575592. Primers were designed to PCR amplify the cDNAs along with the in-frame 3′-his tag sequences from the pET vector and TOPO-cloned the resulting products into the Gateway® entry vector pENTR/D-TOPO. The ACC2 primers were designed to delete amino acids 1-148 and add Met-Gly in front of Lys149 in the final product. The resulting entry clones were transferred to BaculoDirect™ linear DNA (Invitrogen corp.) using the Gateway® LR recombination reaction. The recombinant baculovirus DNA was transfected into insect cells and viral amplification was performed according to the manufacturer's protocols. For protein expression sf9 cells were infected with a P3 viral stock in the presence of 50 uM biotin. The cells were harvested after 48-72 hr, lysed by sonication, and the resulting extract was clarified by centrifugation. ACC in the crude extract was concentrated by ammonium sulfate precipitation (40% w/v) and purified by Ni^2+-NTA chromatography (Novagen) followed by anion exchange chromatography on a UNO-Q column (BioRad).
(§2) Overall ACC activity in the hACC preparations is measured by following incorporation of [^14C]bicarbonate into […] essentially as described (Thumpy and Wakil, J Biol Chem 260, 6318-6323 (1985). Briefly, the reaction mixture (50 μL) contains: 50 mM Hepes (pH7.4), 20 mM K-Citrate, 20 mM Mg-Acetate 1.5 mM MgSO4, 2 mM DTT, 2 mM acetyl-CoA, 12 mM NaHCO3, 0.2 mM NaH^14CO3 (˜50 mCi/mmol), 0.01% (v/v) Triton X-100, 0.75 mg/mL BSA, 1% (v/v) DMSO (with or without inhibitor), and 0.3 μg (hACC1) or 0.15 μg (hACC2) enzyme. Reactions are initiated by the addition of ATP to a final concentration 2 mM. After 10 minutes at 37° C., the reaction is stopped by the addition of 2N HCl (50 μL). The samples are evaporated in a hood overnight, resuspended in H2O (200 μL), and incorporated label is quantified by scintillation counting in scintillation cocktail (3 mL). Inhibition data are fit to dose-response curves and IC50 values are reported (i.e. the concentration of inhibitor that gives 50% inhibition).

hACC2 = molecular target: T2, hACC2 (Homo sapiens, UniProt O00763); experiment: as above; format: biochemical; conditions: recombinant hACC2, overall ACC activity
T2 construct: delete amino acids 1-148 and add Met-Gly in front of Lys149 in the final product; His tag (C); made in house; host or cells: baculovirus, Sf9 insect cells
Description: as §1, §2

[1] = molecular target: uACC (Ustilago maydis ACC) (Ustilago maydis, UniProt A0A0D1DYD5); experiment: as above; format: biochemical
[2] = system: MDA-MB-231 human breast cancer cells; experiment: MTT Cell Proliferation Assay; format: cell-based; conditions: 72 hours, read-out: Percent of Control MDA-MB-231
Description: (§3) The anti-proliferative activity of test compounds against human tumor cell lines is evaluated in vitro using the ATCC's MTT Cell Proliferation Assay (Catalog No. 30-100K). Cell lines are grown using media, serum, and culture conditions recommended by the ATCC. Stock cultures are allowed to grow to 70-80% confluence. Cells are seeded into 96-well culture plates at a predetermined density on day 0 in complete medium (0.1 mL). Plates are placed in a humidified incubator at 37° C. with 5% CO2 and 95% HEPA filtered room air for 24 hours. At this point compound (0.1 mL of 2× stock (in media)) is added to the indicated wells and the plates are returned to the incubator for 72 hours. Cell proliferation is measured by addition of MTT reagent to each well and incubated for an additional 4 hours, followed by addition of cell lysis/MTT solublization reagent and incubating overnight. […] Results are expressed as percent of control cells versus compound concentration. Compounds of the present invention, and salts thereof, were evaluated for anti-proliferative activity as described above.

[3] = system: HCT-116 human colon cancer cells; experiment: MTT Cell Proliferation Assay; format: cell-based; conditions: 72 hours, read-out: Percent of Control HCT-116
Description: as §3

[4] = system: A2780 human ovary cancer cells; experiment: MTT Cell Proliferation Assay; format: cell-based; conditions: 72 hours, read-out: Percent of Control A2780
Description: as §3

[5] = system: PC-3 human prostate cancer cells; experiment: MTT Cell Proliferation Assay; format: cell-based; conditions: 72 hours, read-out: Percent of Control PC-3
Description: as §3

T2 sequence (O00763 149-2458 limits assumed): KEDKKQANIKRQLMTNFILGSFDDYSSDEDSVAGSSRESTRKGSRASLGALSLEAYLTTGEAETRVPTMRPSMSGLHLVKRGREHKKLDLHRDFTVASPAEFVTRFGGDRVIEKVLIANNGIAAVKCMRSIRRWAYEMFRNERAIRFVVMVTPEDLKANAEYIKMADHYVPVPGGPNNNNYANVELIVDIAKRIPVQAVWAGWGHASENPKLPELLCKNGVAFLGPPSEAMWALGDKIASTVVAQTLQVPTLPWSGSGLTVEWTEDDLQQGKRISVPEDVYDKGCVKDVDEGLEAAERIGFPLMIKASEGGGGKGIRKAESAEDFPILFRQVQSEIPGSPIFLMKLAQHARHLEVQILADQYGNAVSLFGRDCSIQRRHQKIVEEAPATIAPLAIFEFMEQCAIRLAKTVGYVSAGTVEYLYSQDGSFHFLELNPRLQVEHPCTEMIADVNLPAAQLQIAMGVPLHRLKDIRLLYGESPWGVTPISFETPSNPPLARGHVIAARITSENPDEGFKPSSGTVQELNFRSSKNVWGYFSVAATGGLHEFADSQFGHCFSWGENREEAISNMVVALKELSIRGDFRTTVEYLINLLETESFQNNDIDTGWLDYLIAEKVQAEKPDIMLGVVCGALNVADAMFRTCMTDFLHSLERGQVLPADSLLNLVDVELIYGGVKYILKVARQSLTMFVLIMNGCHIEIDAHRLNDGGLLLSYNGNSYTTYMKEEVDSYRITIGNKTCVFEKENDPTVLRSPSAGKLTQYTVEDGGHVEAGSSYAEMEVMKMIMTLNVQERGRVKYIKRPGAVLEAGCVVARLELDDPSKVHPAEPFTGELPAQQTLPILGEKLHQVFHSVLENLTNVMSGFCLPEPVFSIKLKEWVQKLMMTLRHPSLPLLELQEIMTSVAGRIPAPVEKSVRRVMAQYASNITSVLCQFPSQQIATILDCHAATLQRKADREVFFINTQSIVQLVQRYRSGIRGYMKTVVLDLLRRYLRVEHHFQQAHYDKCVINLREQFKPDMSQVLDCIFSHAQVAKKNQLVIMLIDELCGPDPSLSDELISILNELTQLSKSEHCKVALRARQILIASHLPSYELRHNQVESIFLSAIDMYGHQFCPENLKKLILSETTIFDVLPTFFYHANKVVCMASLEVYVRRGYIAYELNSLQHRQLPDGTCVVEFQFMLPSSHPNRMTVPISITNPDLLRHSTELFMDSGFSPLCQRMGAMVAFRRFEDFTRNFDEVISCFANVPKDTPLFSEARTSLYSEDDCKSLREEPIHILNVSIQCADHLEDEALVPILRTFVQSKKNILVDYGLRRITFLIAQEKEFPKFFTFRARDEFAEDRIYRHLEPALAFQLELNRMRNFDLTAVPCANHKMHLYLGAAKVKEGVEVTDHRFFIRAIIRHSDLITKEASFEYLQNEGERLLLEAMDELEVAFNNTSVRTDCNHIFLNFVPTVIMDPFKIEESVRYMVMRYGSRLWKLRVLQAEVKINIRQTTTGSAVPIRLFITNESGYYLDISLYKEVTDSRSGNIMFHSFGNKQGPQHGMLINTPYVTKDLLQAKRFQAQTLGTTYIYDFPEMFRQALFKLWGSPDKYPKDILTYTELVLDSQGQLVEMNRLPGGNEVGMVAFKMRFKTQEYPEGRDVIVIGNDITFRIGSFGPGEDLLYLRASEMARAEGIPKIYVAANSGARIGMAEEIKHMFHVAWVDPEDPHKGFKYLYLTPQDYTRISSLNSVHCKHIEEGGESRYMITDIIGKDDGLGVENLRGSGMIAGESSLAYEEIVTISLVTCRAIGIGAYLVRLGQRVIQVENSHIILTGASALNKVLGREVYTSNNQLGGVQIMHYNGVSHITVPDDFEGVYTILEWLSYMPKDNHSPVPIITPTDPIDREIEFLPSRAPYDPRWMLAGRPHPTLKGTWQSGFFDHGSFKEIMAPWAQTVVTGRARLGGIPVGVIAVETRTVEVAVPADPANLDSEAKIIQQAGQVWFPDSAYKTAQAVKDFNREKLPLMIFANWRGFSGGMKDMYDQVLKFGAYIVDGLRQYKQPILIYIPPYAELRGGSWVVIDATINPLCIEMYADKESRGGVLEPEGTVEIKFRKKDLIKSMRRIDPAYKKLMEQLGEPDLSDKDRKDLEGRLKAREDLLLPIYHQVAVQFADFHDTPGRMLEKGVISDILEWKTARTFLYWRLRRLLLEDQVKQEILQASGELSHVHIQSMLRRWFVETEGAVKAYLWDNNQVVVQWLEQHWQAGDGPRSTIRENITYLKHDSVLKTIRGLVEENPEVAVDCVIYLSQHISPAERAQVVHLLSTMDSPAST
Chain of uACC (Ustilago maydis ACC) (A0A0D1DYD5 entry or part of it): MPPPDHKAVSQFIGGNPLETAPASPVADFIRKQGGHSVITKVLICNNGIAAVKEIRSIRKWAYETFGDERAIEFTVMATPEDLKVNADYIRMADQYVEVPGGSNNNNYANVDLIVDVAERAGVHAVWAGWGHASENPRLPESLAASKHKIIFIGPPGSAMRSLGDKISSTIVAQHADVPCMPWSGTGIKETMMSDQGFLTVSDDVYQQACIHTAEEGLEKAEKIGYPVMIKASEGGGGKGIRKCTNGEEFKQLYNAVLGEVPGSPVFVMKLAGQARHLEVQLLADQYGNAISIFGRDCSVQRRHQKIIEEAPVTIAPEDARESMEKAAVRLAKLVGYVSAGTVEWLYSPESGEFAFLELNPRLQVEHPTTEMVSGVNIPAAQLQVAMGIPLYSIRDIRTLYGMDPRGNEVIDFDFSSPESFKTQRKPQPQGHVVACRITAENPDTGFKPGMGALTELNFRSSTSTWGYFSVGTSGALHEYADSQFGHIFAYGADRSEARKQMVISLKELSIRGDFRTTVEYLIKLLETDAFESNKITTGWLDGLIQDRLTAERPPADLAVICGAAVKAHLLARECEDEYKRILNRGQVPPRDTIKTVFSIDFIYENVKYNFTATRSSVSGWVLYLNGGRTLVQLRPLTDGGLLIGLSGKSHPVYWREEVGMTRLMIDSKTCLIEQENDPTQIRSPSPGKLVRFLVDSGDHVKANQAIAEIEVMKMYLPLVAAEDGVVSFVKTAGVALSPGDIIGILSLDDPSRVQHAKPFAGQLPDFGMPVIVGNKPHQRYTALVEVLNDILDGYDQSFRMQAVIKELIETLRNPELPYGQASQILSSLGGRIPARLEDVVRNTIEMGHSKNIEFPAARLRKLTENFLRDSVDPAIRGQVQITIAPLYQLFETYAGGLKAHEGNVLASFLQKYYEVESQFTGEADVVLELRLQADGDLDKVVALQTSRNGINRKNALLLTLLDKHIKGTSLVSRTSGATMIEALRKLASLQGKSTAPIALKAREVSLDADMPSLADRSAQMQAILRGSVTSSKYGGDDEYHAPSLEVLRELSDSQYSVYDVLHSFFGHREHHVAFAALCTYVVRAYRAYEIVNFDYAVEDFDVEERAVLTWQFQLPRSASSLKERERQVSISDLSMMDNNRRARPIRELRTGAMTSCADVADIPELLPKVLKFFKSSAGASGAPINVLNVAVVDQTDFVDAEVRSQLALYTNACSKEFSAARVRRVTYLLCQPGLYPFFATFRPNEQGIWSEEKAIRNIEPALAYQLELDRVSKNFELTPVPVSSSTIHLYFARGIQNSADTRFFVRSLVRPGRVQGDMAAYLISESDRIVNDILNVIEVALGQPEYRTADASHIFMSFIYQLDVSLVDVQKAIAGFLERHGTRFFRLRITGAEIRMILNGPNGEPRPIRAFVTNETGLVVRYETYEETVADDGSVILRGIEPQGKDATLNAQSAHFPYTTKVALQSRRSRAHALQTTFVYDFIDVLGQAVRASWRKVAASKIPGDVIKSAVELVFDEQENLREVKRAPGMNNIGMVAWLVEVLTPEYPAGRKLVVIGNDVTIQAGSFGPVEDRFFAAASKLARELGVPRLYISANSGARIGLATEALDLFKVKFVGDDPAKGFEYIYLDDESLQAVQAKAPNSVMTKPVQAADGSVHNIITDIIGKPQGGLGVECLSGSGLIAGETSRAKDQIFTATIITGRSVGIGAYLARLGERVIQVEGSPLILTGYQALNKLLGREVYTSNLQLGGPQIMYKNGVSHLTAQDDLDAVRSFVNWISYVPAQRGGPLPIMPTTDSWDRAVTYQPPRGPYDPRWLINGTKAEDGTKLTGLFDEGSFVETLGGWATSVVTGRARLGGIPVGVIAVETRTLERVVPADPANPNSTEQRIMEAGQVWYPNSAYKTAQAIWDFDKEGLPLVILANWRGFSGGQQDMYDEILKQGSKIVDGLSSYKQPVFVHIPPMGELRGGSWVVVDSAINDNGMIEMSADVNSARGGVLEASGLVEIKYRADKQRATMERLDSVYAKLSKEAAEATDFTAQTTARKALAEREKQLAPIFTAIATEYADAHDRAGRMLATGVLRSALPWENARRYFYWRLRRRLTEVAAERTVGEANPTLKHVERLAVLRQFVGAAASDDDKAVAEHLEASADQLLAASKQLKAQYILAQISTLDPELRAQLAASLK

Structure (SMILES) | IC50 (hACC1) | IC50 (hACC2) | IC50 [1] | activity at 3.3 µM [2] | activity at 10 µM [2] | activity at 3.3 µM [3] | activity at 10 µM [3] | activity at 3.3 µM [4] | activity at 10 µM [4] | activity at 3.3 µM [5] | activity at 10 µM [5]
O=C1NC2(CCN(C(=O)c3sc4ccccc4c3Cl)CC2)Oc2ccc(Br)cc21 [Compound 1, 6-Bromo-1′-[(3-chlorobenzothien-2-yl)carbonyl]spiro[2H-1,3-benzoxazine-2,4′-piperidine]-4(3H)-one] | 6000 nM | 5400 nM | 160000 nM |  |  |  |  |  |  |  | 
COc1cc2c(OC)cccc2cc1C(=O)N1CCC2(CC1)NC(=O)c1cc(Br)ccc1O2 [Compound 3, 6-Bromo-1′-[(3,5-dimethoxynaphth-2-yl)carbonyl]spiro[2H-1,3-benzoxazine-2,4′-piperidine]-4(3H)-one] | 860 nM | 290 nM | 90000 nM |  |  |  |  |  |  |  | 
CCOc1ccc2c(c1)C(=O)NC1(CCN(C(=O)c3cc(OC)c4cccc(OC)c4n3)CC1)O2 [Compound 139] | 50 nM | 33 nM | 20000 nM | 70.3% | 46.4% | 68.4% | 49.9% | 85.9% | 60.1% | 57% | 54.7%
COc1ccc2cc3c(cc2c1)C(=O)NC1(CCN(C(=O)c2cc(OC)c4cccc(OC)c4n2)CC1)O3 [Compound 164] | 4 nM | 4 nM |  | 47.6% | 13.9% | 54% | 43.5% | 73.1% | 46% | 68% | 
Cc1nn(C)c2sc(C(=O)N3CCC4(CC3)NC(=O)c3cc(Br)ccc3O4)cc12 [Compound 4, 6-Bromo-1′-{(1,3-dimethyl-1H-thieno[2,3-c]pyrazol-5-yl)carbonyl} spiro[2H-1,3-benzoxazin-2,4′-piperidin]-4-(3H)-one] | 2800 nM | 2900 nM | 50000 nM |  |  |  |  |  |  |  | 
CCOc1ccc2c(c1)C(=O)NC1(CCN(C(=O)c3cc(OC)c4cccc(OC)c4c3)CC1)O2 [Compound 146, 1′-[(4,8-Dimethoxynaphth-2-yl)carbonyl]-6-ethoxyspiro[2H-1,3-benzoxazin-2,4′-piperidin]-4-(3H)-one] | 5 nM | 4 nM | 3000 nM |  |  |  |  |  |  |  | 
COc1cc(C(=O)N2CCC3(CC2)NC(=O)c2cc(C)ccc2O3)cc2c(OC)cccc12 [Compound 145, 1′-[(4,8-Dimethoxynaphth-2-yl)carbonyl]-6-methylspiro[2H-1,3-benzoxazin-2,4′-piperidin]-4-(3H)-one] | 11 nM | 7 nM | 5200 nM |  |  |  |  |  |  |  | 
COc1cc(C(=O)N2CCC3(CC2)NC(=O)c2cc(Br)ccc2O3)cc2c(OC)cccc12 [Compound 30, 6-Bromo-1′-[(4,8-dimethoxynaphth-2-yl)carbonyl]spiro[2H-1,3-benzoxazin-2,4′-piperidin]-4-(3H)-one] | 16 nM | 17 nM | 20000 nM |  |  |  |  |  |  |  | 
O=C1NC2(CCN(C(=O)c3cc4c(Cl)cccc4s3)CC2)Oc2ccc(Br)cc21 [Compound 5, 6-Bromo-1′-[(4-chlorobenzthien-2-yl)carbonyl]spiro[2H-1,3-benzoxazin-2,4′-piperidin]-4-(3H)-one] | 4500 nM | 2100 nM | > 135000 nM |  |  |  |  |  |  |  | 
COC(=O)c1ccc2c(c1)C(=O)NC1(CCN(C(=O)c3cc(OC)c4cccc(OC)c4n3)CC1)O2 [Compound 201] | 20 nM | 18 nM |  | 82.5% | 61.5% | 59.8% | 46.8% | 83.2% | 46.4% | 52.7% | 37.1%
COc1cc(C(=O)N2CCC3(CC2)NC(=O)c2cc(NC(C)=O)ccc2O3)nc2c(C3CC3)cccc12 [Compound 33] | 73 nM | 51 nM | 19300 nM |  |  |  |  |  |  |  | 
COc1ccc(-c2cc(C(=O)N3CCC4(CC3)NC(=O)c3ccccc3O4)n[nH]2)cc1 [Compound 87, 1′-[5-(4-Methoxyphenyl)-1(H)-pyrazol-3-ylcarbonyl]spiro[2H-1,3-benzoxazin-2,4′-piperidin]-4-(3H)-one] | 9700 nM | 12000 nM | 220000 nM |  |  |  |  |  |  |  | 
COc1ccc2c(c1)C(=O)NC1(CCN(C(=O)c3[nH]c4c(OC)cccc4c3C)CC1)O2 [Compound 151] | 82 nM | 96 nM |  | 82.9% | 50.1% | 78.6% | 61.8% | 92.7% | 64% | 86.1% | 68.5%
